Here are results for seven molecules from publication PMC11239005, “Preclinical studies of RA475, a guanidine-substituted spirocyclic candidate RPN13/ADRM1 inhibitor for treatment of ovarian cancer” (PLOS ONE, 2024).

Each structure is given as a SMILES string. Values joined by “and” are separate entries in the source; they are usually repeats but may differ in a detail not shown here. Equal entries are not always repeated. Structures can show the parent of a compound that is named as a salt.

The conditions of data set [1]: cited from earlier work.
Data set [2] in a line: LogD measurement, shake-flask octanol/PBS pH 7.4. In kind it is physicochemical. The conditions noted are these: octanol/PBS pH 7.4, single injections 1-3. On the procedure: Incubations were carried out in Eppendorf-type polypropylene microtubes in triplicates. A 2.5 μL aliquot of 20 mM DMSO stock of a test compound was added into the previously mutually saturated mixture containing 500 μL of PBS (pH 7.4) and 500 μL of octanol. The solution was allowed to mix in a rotator for 1 hour at 30 rpm. Phase separation was assured by centrifugation for 2 min at 6000 rpm. The octanol phase was diluted 100-fold with 40% acetonitrile, and the aqueous phase (PBS buffer) was diluted 10-fold. The samples (both phases) were analyzed using an HPLC system coupled with a tandem mass spectrometer. […] Calculations of the partition ratios were carried out using the equation below. D=do.So/dp.Sp where:
So–peak area of the analyte in octanol phase
SP–peak area of the analyte in PBS buffer
do–dilution coefficient for octanol phase

In the next data set the test system is PEA2. The experiment in a line: MTT cytotoxicity assay, PEA2. In kind it is cell-based. The following applies: Homo sapiens; PEA2, 72 h, MTT; read-out: IC50. The protocol: (§1) All cell lines were obtained from the American Type Culture Collection (ATCC) and cultured in the specified medium supplemented with 10% fetal bovine serum, 100 IU/mL penicillin, and 100 μg/mL streptomycin at 37°C in a humidified 5% CO2/95% air incubator. Synthesis of new compounds is described in S1 File, and >95% purity of RA475, Up284 and its analogs were confirmed by NMR and MS. To assess drug cytotoxicity, cells were seeded at 2,500 cells/well (10,000 cells/well for MM lines) in 100 μL medium in 96-well plate as triplicates and after 24 h treated with compounds for a further 72 h. To assess cytotoxicity, the cells were incubated for 2 h at 37°C according to the manufacturer’s protocol with the Thiazolyl Blue Tetrazolium Bromide (20 μL/well of 5 mg/mL stock solution in water) (Sigma, M5655) and A570 measured using a Benchmark Plus microplate spectrophotometer (BIO-RAD). IC50 was estimated using Graphpad Prism 7 software.
(§2) Modifications of Up284 were sought to improve its drug-like properties without significant compromise of its activity in vivo, and several new compounds were synthesized (S1 File). Based on our prior studies of its pharmacophore, the central ring nitrogen was the most logical for addition of charged moieties, including RA475 and RA484. We also examined a change to either 3,4 spiro rings (RA477, RA479), or addition of 3-Fluoro substitutions (RA482) (S1 File). Our focus is developing iRPN13 to treat ovarian cancer resistant to standard of care drug regimens.
(In general: Tetrazolium dyes change colour on reduction, which living cells bring about.)

Another data set concerns PEA1 cells. Description: MTT cytotoxicity assay, PEA1. The following applies: Homo sapiens, PEA1, 72 h. It is filed as cell-based, human. The protocol: as §1, §2
A wash-out experiment was performed to assess reversibility of the toxicity. PEA1 cells were treated with RA475 for 1 h before the medium was replaced with fresh culture medium, and the cells were then allowed to grow for another 71 hours (PEA1-WO). In parallel, PEA1 cells were incubated with RA475 continuously for 72 h. […] Possible reasons include slow uptake of RA475, reversible binding and neutralization by antioxidants in the medium.
To study the effect of RA475 in combination with approved therapeutics (DNA damaging agents or radiation) an MTT assay was performed using various concentrations of both drugs. Briefly PEA1 and OVCAR3 cells were each treated with drug combination (RA475 plus cisplatin) for 72 h in a checker board analysis and cell viability was measured using MTT assay. The data were analyzed and plotted using the Synergy Finder web application.

For data set [3], the system named is spontaneous genetically-engineered peritoneal tumor (shp53, AKT, c-Myc). The experiment in a line: Spontaneous GEMM of primary peritoneal/ovarian cancer. It is filed as in vivo, mouse. The following applies: C57BL/6; RA475 40 mg/kg IP every 3 days (12 doses); cisplatin 5 mg/Kg weekly (5 doses alone, 3 in combination). The protocol:
To induce IP tumor formation in immunocompetent mice, oncogenes (shp53, AKT, c-Myc), luciferase and the Sleeping Beauty (SB) transposase (10 μg/plasmid) were diluted in 500 μL of PBS and injected IP into female C57BL/6 mice. The mice were anesthetized by intramuscular injection of 50–100μL of a cocktail of ketamine 16 mg/mL / 3 mg/mL xylazine. The plasmid-injected mice were electroporated (EP) by the BTX ECM 830 square wave EP generator (BTX) (5 pulses, 200 V for 100 ms/pulse, 100 ms intervals between each pulse) with the caliper electrode (BTX) held across the waist of mouse. The mice were followed by IVIS imaging weekly for tracking tumor growth. The mice were sacrificed when the bioluminescence signal reached 10^9 photons/sec/cm^2/sr, or had enlarged abdomens due to the production of ascites, or had health conditions and/or criteria under which early euthanasia was required by the protocol. To track peritoneal tumor growth, bioluminescence imaging was performed by the IVIS Spectrum2000 (PerkinElmer) as the plasmid expressing SB transposase also produces luciferase. Briefly, the mice were injected IP with D-luciferin (GoldBio). After 10 min, the mice were anesthetized with isoflurane, and imaged by the IVIS Spectrum under the auto exposure mode. Bioluminescence in the peritoneal region was quantified as total photon counts/sec/cm^2/sr using Living Image 3.0 Software (Perkin Elmer).
GEMM better mimic the spontaneous development of cancers in an immune competent host than transplantable tumor lines. Female C57BL/6 mice were co-injected IP with sleeping beauty vector and plasmids expressing carrying shp53, AKT, c-Myc and firefly luciferase genes, followed by electroporation (EP) to deliver these plasmid DNA into the peritoneal cavity cells wherein they integrate randomly into their genome. After 7 days mice were imaged by IVIS200 for bioluminescence and randomized. Four groups (n = 8) were treated IP with vehicle or RA475 (40mg/kg, IP, every 3 days) or Cisplatin (5 mg/Kg, once a week) or the combination of RA475 (40mg/Kg, IP, every 3 days) plus Cisplatin (5 mg/Kg, once a week). […] While cisplatin reduced tumor growth, it led to severe toxicity including weight loss >20% that was not evident with RA475 alone.
Fig 7 Administration of RA475, cisplatin or the combination to mice bearing spontaneous, genetically-engineered model ovarian/peritoneal cancer. Female C57BL/6 mice were co-injected IP with sleeping beauty vector and plasmids expressing carrying shp53, AKT, c-Myc and firefly luciferase genes, followed by electroporation (EP) to deliver these plasmid DNA into the peritoneal cavity cells wherein they integrate randomly into their genome. After 7 days mice were imaged by Xenogen IVIS200 for bioluminescence and randomized. […]

For orientation: IC50 means the concentration that gives 50% inhibition.

For `CC(C)C[C@H](NC(=O)[C@H](CCc1ccccc1)NC(=O)CN1CCOCC1)C(=O)N[C@@H](Cc1ccccc1)C(=O)N[C@@H](CC(C)C)C(=O)[C@@]1(C)CO1` [Carfilzomib, carfilzomib], the “access to the brain” value in data set [1] is “mostly excluded from the brain”.

Take `COC(=O)Nc1nc2ccc(C(=O)c3ccccc3)cc2[nH]1` [Mebendazole]: in data set [2], the D was 8.61E+02 and 8.97E+02 and 8.85E+02.

As to `N#Cc1ccc(/C=C2/C(=O)/C(=C/c3ccc(C#N)cc3)C23CCN(C(=N)N)C3)cc1` [RA477, 1,3-bis((E)-4-cyanobenzylidene)-2-oxo-6-azaspiro[3.4]octane-6-carboximidamide dihydrochloride], the half-inhibitory concentration (IC50) in the data set with PEA2 turned out to be 312 nM; in the data set with PEA1 cells it was 331 nM.

On to `N#Cc1ccc(/C=C2/C(=O)/C(=C/c3ccc(C#N)c(F)c3)C23CCN(C(=N)N)C3)cc1F` [RA479, 1,3-bis((E)-4-cyano-3-fluorobenzylidene)-2-oxo-6-azaspiro[3.4]octane-6-carboximidamide dihydrochloride], for which the IC50 with PEA2 is 320 nM; in the data set with PEA1 cells, 350 nM.

As for `N#Cc1ccc(/C=C2/C(=O)/C(=C/c3ccc(C#N)c(F)c3)C23CCN(C(=N)N)CC3)cc1F` [RA482, 1,3-bis((E)-4-cyano-3-fluorobenzylidene)-2-oxo-7-azaspiro[3.5]nonane-7-carboximidamide dihydrochloride], the results for the half-maximal inhibitory concentration (IC50) with PEA2 and with PEA1 cells were 410 nM and 396 nM, respectively.

On to `N#Cc1ccc(/C=C2/C(=O)/C(=C/c3ccc(C#N)cc3)C23CCN(C(=N)N2CCOCC2)CC3)cc1` [RA484, 4,4'-((1E,1'E)-(7-(imino(morpholino)methyl)-2-oxo-7-azaspiro[3.5]nonane-1,3-diylidene)bis(methaneylylidene))dibenzonitrile], for which the IC50 was 522 nM in the data set on PEA2 and 479 nM in the data set with PEA1 cells.

In the case of `N.N.[Cl][Pt][Cl]` [cisplatin, reference compound], the “tumor burden by bioluminescence” value in data set [3] is listed as “significantly better delayed, but did not reduce, tumor burden”.
